Laboratory results taken from patent publication US8927562B2, “Fused tricyclic inhibitors of mammalian target of rapamycin” (Merck Sharp & Dohme Corp., priority 2010, dated 2015).

Biological target: mTOR enzyme (Homo sapiens, UniProt P42345)
Assay: mTOR Kinase Assay
Format: biochemical
Conditions: 5 μM ATP, 0.1 μM GSTS6K substrate
Experimental: The mTOR assay buffer contains 10 mM hepes (pH 7.4), 50 mM NaCl, 100 μg/ml BSA, 50 mM B-glycerophosphate, 10 mM MnCl2 and 0.5 mM DTT. 20 ng of mTOR enzyme is preincubated with the compound for 10 minutes. 5 μM ATP and 0.1 μM GSTS6K is added. The reaction is incubated for one hour at 30° C. Anti phospho p70S6K (about 1.7 ng/well) and anti GSTXL665 (1:1 Ratio with the substrate GSTS6K) are added after incubating. The plates are read at least 2 hours after adding the anti phospho p70S6K and the anti GSTXL665.
Dose-response curves were plotted from inhibition data generated, each in duplicate, from 8 point serial dilutions of inhibitory compounds. Concentration of compound was plotted against % kinase activity, calculated by CPM of treated samples divided by CPM of untreated samples. To generate IC50 values, the dose-response curves were then fitted to a standard sigmoidal curve and IC50 values were derived by nonlinear regression analysis.

Question: `C[C@@H](O)C(=O)N1Cc2nc3c(-c4ccc(-c5ccccc5)nc4)cnn3c(N)c2C1` [Example 1, (R)-1-(8-amino-3-(6-phenylpyridin-3-yl)-5H-pyrazolo[1,5-a]pyrrolo[3,4-d]pyrimidin-6(7H)-yl)-2-hydroxypropan-1-one] was tested. Which IC50 did it give?
Answer: The IC50 was 10 to 100 nM.

Question: Which IC50 does the source give for `Nc1c2c(nc3c(-c4ccc(-c5ccccc5)nc4)cnn13)CS(=O)(=O)C2` [Example 2, 3-(6-phenylpyridin-3-yl)-5,7-dihydropyrazolo[1,5-a]6,6-dioxidothieno[3,4-d]pyrimidin-8-amine] here?
Answer: The IC50 was 10 to 100 nM.

Question: How did the IC50 turn out when `Nc1c2c(nc3c(-c4ccc(-c5ccccc5)nc4)cnn13)C(NC1CCOCC1)CC2` (stereo not drawn) [Example 3, 3-(6-phenylpyridin-3-yl)-N5-(tetrahydro-2H-pyran-4-yl)-6,7-dihydro-5H-cyclopenta[d]pyrazolo[1,5-a]pyrimidine-5,8-diamine] was run?
Answer: Its IC50 is > 100 nM.

Question: For `Cc1cn(C2CCN(C(=O)CO)CC2)c2nc3c(-c4cnc5ccc(F)cc5c4)cnn3c(N)c12` [Example 4, 1-(4-(8-amino-3-(6-fluoroquinolin-3-yl)-7-methyl-5H-pyrazolo[1,5-a]pyrrolo[2,3-d]pyrimidin-5-yl)piperidin-1-yl)-2-hydroxyethanone], which IC50 is on record?
Answer: Its IC50 is < 10 nM.

Question: `Cc1cn(C2CCN(C(=O)c3nnc[nH]3)CC2)c2nc3c(-c4cnc5ccc(F)cc5c4)cnn3c(N)c12` [Example 5] was tested. Which IC50 did it give?
Answer: Its IC50 is < 10 nM.

Question: With `Cc1cn(C2CCN(C(=O)c3nnc[nH]3)CC2)c2nc3c(-c4ccc(-c5ccccc5)nc4)cnn3c(N)c12` [Example 6] as the compound, how does the IC50 read?
Answer: The IC50 was 10 to 100 nM.

Question: `Cc1cn(C2CCN(C(=O)c3nnc(N)[nH]3)CC2)c2nc3c(-c4ccc(-c5ccccc5)nc4)cnn3c(N)c12` [Example 7] was tested. Which IC50 did it give?
Answer: The IC50 was 10 to 100 nM.

Question: With `Cc1cn(C2CCN(C(=O)c3cc(N)n[nH]3)CC2)c2nc3c(-c4ccc(-c5ccccc5)nc4)cnn3c(N)c12` [Example 8] as the compound, how does the IC50 read?
Answer: The IC50 was 10 to 100 nM.

Question: `Cc1cn(C2CCN(C(=O)CO)CC2)c2nc3c(-c4ccc(-c5ccccc5)nc4)cnn3c(N)c12` [Example 9] was tested. Which IC50 did it give?
Answer: The IC50 was < 10 nM.

Question: `Cc1cn(C2CCN(C(=O)c3nnc[nH]3)CC2)c2nc3c(-c4ccc(-c5ccn(C)n5)nc4)cnn3c(N)c12` [Example 10] was tested. Which IC50 did it give?
Answer: The IC50 was < 10 nM.

Question: With `Cc1cn(C2CCN(C(=O)CO)CC2)c2nc3c(-c4ccc(-c5ccn(C)n5)nc4)cnn3c(N)c12` [Example 11] as the compound, how does the IC50 read?
Answer: The IC50 was 10 to 100 nM.

Question: Which IC50 does the source give for `Cc1cn(C2CCN(C(=O)c3nnc[nH]3)CC2)c2nc3c(-c4cnn(-c5ccccc5)c4)cnn3c(N)c12` [Example 12] here?
Answer: Its IC50 is 10 to 100 nM.

Question: For `Cc1cn(C2CCN(C(=O)CO)CC2)c2nc3c(-c4cnn(-c5ccccc5)c4)cnn3c(N)c12` [Example 13], which IC50 is on record?
Answer: The IC50 was < 10 nM.

Question: With `Cc1cn(C2CCN(C(=O)c3nnc[nH]3)CC2)c2nc3c(-c4ccc(-c5ncc[nH]5)nc4)cnn3c(N)c12` [Example 14] as the compound, how does the IC50 read?
Answer: Its IC50 is < 10 nM.

Question: How did the IC50 turn out when `Cc1cn(C2CCN(C(=O)CO)CC2)c2nc3c(-c4ccc(-c5ncc[nH]5)nc4)cnn3c(N)c12` [Example 15] was run?
Answer: Its IC50 is < 10 nM.
